Target: T1, mS29 (Saccharomyces cerevisiae, UniProt Q01163)
T1 construct: gene RSM23; native subunit within the mitoribosomal small subunit purified from yeast mitochondria
Assay: cryo-EM structure of the SSU […] Å
Format: binding
Conditions: within the mitoribosomal SSU; nucleotide pocket; reassigned from GDP

With `Nc1ncnc2c1ncn2[C@@H]1O[C@H](COP(=O)(O)OP(=O)(O)OP(=O)(O)O)[C@@H](O)[C@H]1O` [adenosine triphosphate] the “cryo-EM structure of the SSU 2.3 Å” value was “guanosine diphosphate (GDP) to adenosine triphosphate (ATP) in the nucleotide pocket of the protein mS29”.

— article PMC11046306, “METTL17 is an Fe-S cluster checkpoint for mitochondrial translation” (Molecular cell, 2024)
